Earlier results as cited in patent US20100004191A1, “Compositions of S-adenosyl-L-methionine” (priority 2008, published 2010).

Columns and labels:
[1] = tested on: alcoholic liver cirrhosis; settings: oral; patients with alcoholic liver cirrhosis; compared with placebo treated group
beta-adrenergic = settings: L-form vs D-enantiomer

Row | SMILES | overall mortality and/or progression to liver transplant [1] | potency relative to the D-enantiomer (beta-adrenergic)
1 | C[S+](CC[C@H](N)C(=O)[O-])C[C@H]1O[C@@H](n2cnc3c(N)ncnc32)[C@H](O)[C@@H]1O (stereo partly drawn) [S-adenosyl-L-methionine] | 29% | –
2 | CC(C)NCC(O)COc1cccc2ccccc12 (centres unmarked) [propranolol] | – | 100 times
